According to ChEMBL document CHEMBL1141126, “Improving the antiviral efficacy and selectivity of HIV-1 reverse transcriptase inhibitor TSAO-T by the introduction of functional groups at the N-3 position” (J Med Chem, 2005):

Experiments:
CCRF-CEM [1] = experiment: Cytostatic concentration required to inhibit cell proliferation in human CEM cell line; format: functional
CCRF-CEM [2] = experiment: Ratio of cytostatic concentration to effective concentration in human CEM cell line; format: functional
[3] = system: Human immunodeficiency virus 2; experiment: Effective concentration required to inhibit HIV-2 induced cytopathicity in human CEM cell line; format: functional, organism-based; details: Human immunodeficiency virus 2, CCRF-CEM
[4] = system: Human immunodeficiency virus 2; experiment: Effective concentration required to inhibit HIV-2 induced cytopathicity in human MT-4 cell line; format: functional, organism-based; details: Human immunodeficiency virus 2, MT4
[5] = system: Human immunodeficiency virus 1; experiment: Effective concentration required to inhibit HIV-1/138K induced cytopathicity in human CEM cell line; format: functional, organism-based; details: Human immunodeficiency virus 1, CCRF-CEM
[6] = target: Human immunodeficiency virus type 1 reverse transcriptase (Human immunodeficiency virus 1, UniProt Q72547); experiment: Inhibitory concentration required to inhibit recombinant HIV-1 reverse transcriptase
[7] = system: Human immunodeficiency virus 1; experiment: Effective concentration required to inhibit HIV-1 induced cytopathicity in human CEM cell line; format: functional, organism-based; details: Human immunodeficiency virus 1, CCRF-CEM
[8] = system: Human immunodeficiency virus 1; experiment: Effective concentration required to inhibit HIV-1 induced cytopathicity in human MT-4 cell line; format: functional, organism-based; details: Human immunodeficiency virus 1, MT4

Structure (SMILES) | CC50 (CCRF-CEM [1]) [µM] | SI (CCRF-CEM [2]) | EC50 [3] [µM] | EC50 [4] [µM] | EC50 [5] [µM] | IC50 [6] [µM] | EC50 [7] [nM] | EC50 [8] [nM]
Cc1cn([C@@H]2O[C@H](CO[Si](C)(C)C(C)(C)C)C3(OS(=O)(=O)C=C3N)[C@H]2O[Si](C)(C)C(C)(C)C)c(=O)[nH]c1=O (some centres not stated) | 12 | 200 | > 20 | > 20 | > 10 |  |  | 
Cc1cn([C@@H]2O[C@H](CO[Si](C)(C)C(C)(C)C)[C@@]3(OS(=O)(=O)C=C3N)[C@H]2O[Si](C)(C)C(C)(C)C)c(=O)n(CCc2ccccc2)c1=O | 14.2 | 23 | > 10 | > 2 | > 10 | > 500 | 620 | 
COC(=O)Cn1c(=O)c(C)cn([C@@H]2O[C@H](CO[Si](C)(C)C(C)(C)C)[C@@]3(OS(=O)(=O)C=C3N)[C@H]2O[Si](C)(C)C(C)(C)C)c1=O | > 152 | >253 | > 152 | > 152 |  | 3 | 60 | 110
Cc1cn([C@@H]2O[C@H](CO[Si](C)(C)C(C)(C)C)[C@@]3(OS(=O)(=O)C=C3N)[C@H]2O[Si](C)(C)C(C)(C)C)c(=O)n(CC(=O)OCc2ccccc2)c1=O | 12.9 | 31 | > 5 | > 27 |  | > 250 | 410 | 540
Cc1cn([C@@H]2O[C@H](CO[Si](C)(C)C(C)(C)C)[C@@]3(OS(=O)(=O)C=C3N)[C@H]2O[Si](C)(C)C(C)(C)C)c(=O)n(Cc2ccccc2)c1=O | 53 | 294 | > 50 | > 50 | > 50 | > 500 | 180 | 470
Cc1cn([C@@H]2O[C@H](CO[Si](C)(C)C(C)(C)C)[C@@]3(OS(=O)(=O)C=C3N)[C@H]2O[Si](C)(C)C(C)(C)C)c(=O)n(CCC[N+](C)(C)C)c1=O.[I-] | 110 | 22 | > 25 | > 25 | > 25 | 11 | 5000 | 4900
COCCn1c(=O)c(C)cn([C@@H]2O[C@H](CO[Si](C)(C)C(C)(C)C)[C@@]3(OS(=O)(=O)C=C3N)[C@H]2O[Si](C)(C)C(C)(C)C)c1=O | 38.8 | 485 | > 10 | > 10 | > 10 | 2.9 | 80 | 160
Cc1cn([C@@H]2O[C@H](CO[Si](C)(C)C(C)(C)C)[C@@]3(OS(=O)(=O)C=C3N)[C@H]2O[Si](C)(C)C(C)(C)C)c(=O)n(CCBr)c1=O | 129 | 4300 | > 50 | > 50 | > 50 | > 500 | 30 | 170
Cc1cn([C@@H]2O[C@H](CO[Si](C)(C)C(C)(C)C)[C@@]3(OS(=O)(=O)C=C3N)[C@H]2O[Si](C)(C)C(C)(C)C)c(=O)n(CC2CC2)c1=O | 60.4 | 335 | > 10 | > 50 | > 50 | > 500 | 180 | 200
Cc1cn([C@@H]2O[C@H](CO[Si](C)(C)C(C)(C)C)[C@@]3(OS(=O)(=O)C=C3N)[C@H]2O[Si](C)(C)C(C)(C)C)c(=O)n(CCCN(C)C)c1=O | 10.4 | 61 | > 10 | > 10 | > 10 | 6.6 | 170 | 160
Cc1cn([C@@H]2O[C@H](CO[Si](C)(C)C(C)(C)C)[C@@]3(OS(=O)(=O)C=C3N)[C@H]2O[Si](C)(C)C(C)(C)C)c(=O)n(CCO)c1=O | 11.3 | 282 | > 10 | > 10 | 8 | 3.1 | 40 | 60
Cc1cn([C@@H]2O[C@H](CO[Si](C)(C)C(C)(C)C)[C@@]3(OS(=O)(=O)C=C3N)[C@H]2O[Si](C)(C)C(C)(C)C)c(=O)n(CCc2cccc3cc[nH]c23)c1=O | 27.6 | 81 | > 50 | > 10 | > 50 | > 500 | 340 | 960
CNC(=O)Cn1c(=O)c(C)cn([C@@H]2O[C@H](CO[Si](C)(C)C(C)(C)C)[C@@]3(OS(=O)(=O)C=C3N)[C@H]2O[Si](C)(C)C(C)(C)C)c1=O | ≥ 250 | >=12500 | > 50 | > 250 | 3.5 | 3.1 | 20 | 30
Cc1cn([C@@H]2O[C@H](CO[Si](C)(C)C(C)(C)C)[C@@]3(OS(=O)(=O)C=C3N)[C@H]2O[Si](C)(C)C(C)(C)C)c(=O)n(CC(=O)N(C)C)c1=O | 245 | 12250 | > 250 | > 250 | 4.5 | 3.5 | 20 | 40
COC(=O)CCCCn1c(=O)c(C)cn([C@@H]2O[C@H](CO[Si](C)(C)C(C)(C)C)[C@@]3(OS(=O)(=O)C=C3N)[C@H]2O[Si](C)(C)C(C)(C)C)c1=O | 125 | 1563 | ≥ 142 | > 142 |  | 327 | 80 | 200
CCOC(=O)CCCCCn1c(=O)c(C)cn([C@@H]2O[C@H](CO[Si](C)(C)C(C)(C)C)[C@@]3(OS(=O)(=O)C=C3N)[C@H]2O[Si](C)(C)C(C)(C)C)c1=O | 40.6 | 312 | > 50 | > 50 | > 10 | > 500 | 130 | 270
CNC(=O)CCCCCn1c(=O)c(C)cn([C@@H]2O[C@H](CO[Si](C)(C)C(C)(C)C)[C@@]3(OS(=O)(=O)C=C3N)[C@H]2O[Si](C)(C)C(C)(C)C)c1=O | 22.1 | 442 | > 125 | > 125 | 10 | 2.4 | 50 | 30
COC(=O)/C=C/Cn1c(=O)c(C)cn([C@@H]2O[C@H](CO[Si](C)(C)C(C)(C)C)[C@@]3(OS(=O)(=O)C=C3N)[C@H]2O[Si](C)(C)C(C)(C)C)c1=O | 142 | 2367 | > 10 | > 250 | 5.5 | 30 | 60 | 130
Cc1cn([C@@H]2O[C@H](CO[Si](C)(C)C(C)(C)C)[C@@]3(OS(=O)(=O)C=C3N)[C@H]2O[Si](C)(C)C(C)(C)C)c(=O)n(C/C=C/CO)c1=O | 4.41 | 220 | > 2 | > 2 | 4.5 | 4.5 | 20 | 70
Cc1cn([C@@H]2O[C@H](CO[Si](C)(C)C(C)(C)C)[C@@]3(OS(=O)(=O)C=C3N)[C@H]2O[Si](C)(C)C(C)(C)C)c(=O)n(CCCCO)c1=O | 20.5 | 227 | > 10 | > 10 | ≥ 10 | 13 | 90 | 170
Cc1cn([C@@H]2O[C@H](CO[Si](C)(C)C(C)(C)C)[C@@]3(OS(=O)(=O)C=C3N)[C@H]2O[Si](C)(C)C(C)(C)C)c(=O)n(CCCN2C(=O)c3ccccc3C2=O)c1=O | > 250 | >2272 | > 250 | > 250 | > 250 | > 500 | 110 | 290
Cc1cn([C@@H]2O[C@H](CO[Si](C)(C)C(C)(C)C)[C@@]3(OS(=O)(=O)C=C3N)[C@H]2O[Si](C)(C)C(C)(C)C)c(=O)n(CCCNC(=O)OCc2ccccc2)c1=O | 229 | 1526 | > 50 | > 50 | > 50 | > 500 | 150 | 170
Cc1cn([C@@H]2O[C@H](CO[Si](C)(C)C(C)(C)C)[C@@]3(OS(=O)(=O)C=C3N)[C@H]2O[Si](C)(C)C(C)(C)C)c(=O)n(CCCN(CC(=O)O)CC(=O)O)c1=O | > 250 | >63 | > 10 | > 50 | > 50 | > 500 | 4000 | 
Cc1cn([C@@H]2O[C@H](CO[Si](C)(C)C(C)(C)C)[C@@]3(OS(=O)(=O)C=C3N)[C@H]2O[Si](C)(C)C(C)(C)C)c(=O)n(CC(N)=O)c1=O | 13.3 | 266 | > 10 | > 10 | > 50 | > 250 | 50 | 
Cc1cn([C@@H]2O[C@H](CO[Si](C)(C)C(C)(C)C)[C@@]3(OS(=O)(=O)C=C3N)[C@H]2O[Si](C)(C)C(C)(C)C)c(=O)n(CC(=O)O)c1=O | 152 | 44 | ≥ 155 | > 155 |  | 15 | 3480 | 
Cc1cn([C@@H]2O[C@H](CO[Si](C)(C)C(C)(C)C)[C@@]3(OS(=O)(=O)C=C3N)[C@H]2O[Si](C)(C)C(C)(C)C)c(=O)n(CCCN)c1=O | 11.6 | 83 | > 10 | > 10 | > 10 | 8.1 | 140 | 
Cc1cn([C@@H]2O[C@H](CO[Si](C)(C)C(C)(C)C)[C@@]3(OS(=O)(=O)C=C3N)[C@H]2O[Si](C)(C)C(C)(C)C)c(=O)n(CCCO)c1=O | 3.86 | 386 | > 2 | > 2 |  | 3 | 10 | 
